Data reported in PubChem BioAssay (NCI).
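Interpolation was linear, between the two tested concentrations surrounding the appropriate level; five concentrations were tested over 48 hours in 96-well plates. The concentration for 50% growth inhibition is given as GI50. The concentration for full growth arrest is given as TGI.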 Where a SMILES comes first, the peptide text is derived from it. The star is where a group is joined. Boc = CC(C)(C)OC(=O)*; OBn = c1ccc(CO*)cc1; Bn = c1ccc(C*)cc1

Experiments:
Test in all cases: NCI anticancer screen, dose series, 48 h
[1] = tested on: UO-31 renal
[2] = tested on: MOLT-4 leukemia
[3] = tested on: 786-0 renal
[4] = tested on: LOX IMVI melanoma
[5] = tested on: SF-268 CNS
[6] = tested on: SR leukemia
[7] = tested on: MDA-MB-231 breast
[8] = tested on: K-562 leukemia
[9] = tested on: UACC-62 melanoma
[10] = tested on: HCT-116 colon
[11] = tested on: DU-145 prostate
[12] = tested on: SF-295 CNS
[13] = tested on: HOP-62 NSCLC
[14] = tested on: TK-10 renal
[15] = tested on: OVCAR-8 ovarian
[16] = tested on: NCI-H460 lung
[17] = tested on: HCT-15 colon
[18] = tested on: EKVX NSCLC
[19] = tested on: HCC-2998 colon
[20] = tested on: NCI-H23 lung
[21] = tested on: SN12C renal
[22] = tested on: U251 CNS
[23] = tested on: NCI-H522 lung
[24] = tested on: M14 melanoma
[25] = tested on: SNB-19 CNS
[26] = tested on: ACHN renal
[27] = tested on: T-47D breast
[28] = tested on: OVCAR-4 ovarian
[29] = tested on: HL-60(TB) leukemia
[30] = tested on: IGROV1 ovarian
[31] = tested on: SK-OV-3 ovarian
[32] = tested on: SW-620 colon
[33] = tested on: COLO 205 colon
[34] = tested on: SK-MEL-28 melanoma
[35] = tested on: MCF7 breast
[36] = tested on: NCI/ADR-RES ovarian
[37] = tested on: RPMI-8226 leukemia
[38] = tested on: OVCAR-5 ovarian
[39] = tested on: OVCAR-3 ovarian
[40] = tested on: HT29 colon
[41] = tested on: MALME-3M melanoma
[42] = tested on: CAKI-1 renal
[43] = tested on: MDA-N
[44] = tested on: SF-539 CNS
[45] = tested on: SNB-75 CNS
[46] = tested on: CCRF-CEM leukemia
[47] = tested on: UACC-257 melanoma
[48] = tested on: A498 renal
[49] = tested on: SK-MEL-2 melanoma
[50] = tested on: PC-3 prostate
[51] = tested on: MDA-MB-435
[52] = tested on: KM12 colon
[53] = tested on: RXF 393 renal
[54] = tested on: HOP-92 NSCLC
[55] = tested on: SK-MEL-5 melanoma
[56] = tested on: A549 NSCLC
[57] = tested on: BT-549 breast
[58] = tested on: HS 578T breast
[59] = tested on: NCI-H226 lung

SMILES: CC(C)CC(NC(=O)C(Cc1ccccc1)NC(=O)C(COCc1ccccc1)NC(=O)OC(C)(C)C)C(=O)OCc1ccccc1 (stereo not drawn) (Boc-Ser(Bn)-Phe-Leu-OBn; configuration not given here)
- TGI [1]: > 100 µM
- TGI [2]: 33.4 µM
- TGI [3]: 30.8 µM
- TGI [4]: 40.1 µM
- TGI [5]: 43 µM
- TGI [6]: 44.3 µM
- TGI [7]: 93 µM
- TGI [8]: 45.2 µM
- TGI [9]: 33 µM
- TGI [10]: 32.9 µM
- TGI [11]: 25.2 µM
- TGI [12]: 51.1 µM
- TGI [13]: > 100 µM
- TGI [14]: > 100 µM
- TGI [15]: 34.6 µM
- TGI [16]: 26.4 µM
- TGI [17]: 76 µM
- TGI [18]: 61.5 µM
- TGI [19]: 27.8 µM
- TGI [20]: 43.2 µM
- TGI [21]: 63.9 µM
- TGI [22]: 53.2 µM
- TGI [23]: 31.9 µM
- TGI [24]: > 100 µM
- TGI [25]: > 100000 nM
- TGI [26]: 33.1 µM
- TGI [27]: > 100 µM
- TGI [28]: > 100 µM
- TGI [29]: 15.3 µM
- TGI [30]: 31.8 µM
- TGI [31]: > 100 µM
- TGI [32]: 56.7 µM
- TGI [33]: 43.9 µM
- TGI [34]: 42 µM
- TGI [35]: > 100 µM
- TGI [36]: > 100 µM
- TGI [37]: 33.2 µM
- TGI [38]: > 100000 nM
- TGI [39]: > 100000 nM
- TGI [40]: 43.9 µM
- TGI [41]: > 100 µM
- TGI [42]: > 100 µM
- TGI [43]: > 100 µM
- TGI [44]: 72.3 µM
- TGI [45]: 57.6 µM
- TGI [46]: 63.7 µM
- TGI [47]: > 100 µM
- TGI [48]: > 100 µM
- TGI [49]: > 100 µM
- TGI [50]: 57.6 µM

SMILES: CCCCCOP(=O)(OCCCCC)C(NC(C)=O)(C(=O)OCC)C(F)(F)F (centres undefined)
- TGI [1]: > 100 µM
- TGI [2]: > 100 µM
- TGI [5]: > 100 µM
- TGI [6]: > 100 µM
- TGI [7]: > 100 µM
- TGI [8]: > 100 µM
- TGI [9]: > 100 µM
- TGI [10]: > 100 µM
- TGI [11]: > 100 µM
- TGI [13]: > 100 µM
- TGI [17]: > 100 µM
- TGI [18]: > 100 µM
- TGI [19]: > 100 µM
- TGI [21]: > 100 µM
- TGI [22]: > 100 µM
- TGI [23]: > 100 µM
- TGI [24]: > 100 µM
- TGI [26]: > 100 µM
- TGI [27]: > 100 µM
- TGI [29]: > 100 µM
- TGI [31]: > 100 µM
- TGI [34]: > 100 µM
- TGI [35]: > 100 µM
- TGI [37]: > 100 µM
- TGI [40]: > 100 µM
- TGI [41]: > 100 µM
- TGI [43]: > 100 µM
- TGI [44]: > 100 µM
- TGI [45]: > 100 µM
- TGI [46]: > 100 µM
- TGI [48]: > 100 µM
- TGI [51]: > 100 µM

SMILES: COC(=O)CSc1[nH]c2nc(C)nc(Nc3ccccc3)c2c1C#N
- TGI [2]: > 10 µM
- TGI [3]: > 10 µM
- TGI [4]: > 10 µM
- TGI [5]: > 10 µM
- TGI [6]: > 10 µM
- TGI [7]: > 10 µM
- TGI [8]: > 10 µM
- TGI [9]: > 10 µM
- TGI [11]: > 10 µM
- TGI [12]: > 10 µM
- TGI [52]: > 10000 nM
- TGI [13]: > 10 µM
- TGI [14]: > 10 µM
- TGI [15]: > 10 µM
- TGI [53]: > 10000 nM
- TGI [17]: > 10 µM
- TGI [18]: > 10 µM
- TGI [19]: > 10 µM
- TGI [20]: > 10 µM
- TGI [54]: > 10000 nM
- TGI [21]: > 10 µM
- TGI [55]: > 10000 nM
- TGI [24]: > 10 µM
- TGI [27]: > 10 µM
- TGI [28]: > 10 µM
- TGI [29]: > 10 µM
- TGI [30]: > 10 µM
- TGI [31]: > 10 µM
- TGI [32]: > 10 µM
- TGI [33]: > 10 µM
- TGI [34]: > 10 µM
- TGI [35]: > 10 µM
- TGI [37]: > 10 µM
- TGI [40]: > 10 µM
- TGI [56]: > 10000 nM
- TGI [41]: > 10 µM
- TGI [42]: > 10 µM
- TGI [43]: > 10 µM
- TGI [45]: > 10 µM
- TGI [46]: > 10 µM
- TGI [47]: > 10 µM
- TGI [51]: > 10 µM
- TGI [50]: > 10 µM

SMILES: CCOc1ccc2c(c1)/C(=C\C=C\C1CC(C)C3CC(OCC)CCC3N1CC)CC(C)N2CC (centres undefined)
- GI50 [1]: 1590 nM
- TGI [1]: 3.31 µM
- GI50 [2]: 1470 nM
- TGI [2]: 4.14 µM
- GI50 [3]: 1490 nM
- TGI [3]: 2.98 µM
- GI50 [4]: 871 nM
- TGI [4]: 2.27 µM
- GI50 [5]: 882 nM
- TGI [5]: 2.41 µM
- GI50 [6]: 412 nM
- TGI [6]: 2.75 µM
- GI50 [7]: 1220 nM
- TGI [7]: 2.92 µM
- GI50 [8]: 685 nM
- TGI [8]: 2.62 µM
- GI50 [9]: 1260 nM
- TGI [9]: 2.77 µM
- GI50 [10]: 789 nM
- TGI [10]: 2.17 µM
- GI50 [11]: 991 nM
- TGI [11]: 2.25 µM
- GI50 [57]: 906 nM
- TGI [57]: 2460 nM
- GI50 [12]: 418 nM
- TGI [12]: 1.68 µM
- GI50 [52]: 673 nM
- TGI [52]: 1920 nM
- GI50 [13]: 755 nM
- TGI [13]: 2.25 µM
- GI50 [14]: 1500 nM
- TGI [14]: 2.93 µM
- GI50 [15]: 610 nM
- TGI [15]: 2.19 µM
- GI50 [53]: 1170 nM
- TGI [53]: 2590 nM
- GI50 [16]: 416 nM
- TGI [16]: 1.64 µM
- GI50 [17]: 1160 nM
- TGI [17]: 2.77 µM
- GI50 [19]: 1050 nM
- TGI [19]: 2.42 µM
- GI50 [20]: 567 nM
- TGI [20]: 2.38 µM
- GI50 [54]: 1210 nM
- TGI [54]: 2580 nM
- GI50 [21]: 471 nM
- TGI [21]: 1.81 µM
- GI50 [22]: 380 nM
- TGI [22]: 1.51 µM
- GI50 [23]: 852 nM
- TGI [23]: 3.08 µM
- GI50 [58]: 1590 nM
- TGI [58]: 6.81 µM
- GI50 [55]: 702 nM
- TGI [55]: 2010 nM
- GI50 [24]: 1430 nM
- TGI [24]: 3 µM
- GI50 [25]: 512 nM
- TGI [25]: 1970 nM
- GI50 [26]: 1430 nM
- TGI [26]: 2.95 µM
- GI50 [59]: 1060 nM
- TGI [59]: 2790 nM
- GI50 [27]: 334 nM
- TGI [27]: 2.12 µM
- GI50 [28]: 459 nM
- TGI [28]: 2 µM
- GI50 [29]: 1820 nM
- TGI [29]: 5.71 µM
- GI50 [30]: 1110 nM
- TGI [30]: 3.13 µM
- GI50 [31]: 596 nM
- TGI [31]: 1.92 µM
- GI50 [32]: 730 nM
- TGI [32]: 2.59 µM
- GI50 [33]: 1360 nM
- TGI [33]: 2.82 µM
- GI50 [34]: 1360 nM
- TGI [34]: 2.86 µM
- GI50 [35]: 627 nM
- TGI [35]: 2.43 µM
- GI50 [36]: 3.14 µM
- TGI [36]: > 100 µM
- GI50 [37]: 269 nM
- TGI [37]: 1.65 µM
- GI50 [38]: 1230 nM
- TGI [38]: 2640 nM
- GI50 [39]: 915 nM
- TGI [39]: 2200 nM
- GI50 [40]: 521 nM
- TGI [40]: 1.69 µM
- GI50 [56]: 304 nM
- TGI [56]: 1460 nM
- GI50 [41]: 1610 nM
- TGI [41]: 3.42 µM
- GI50 [42]: 1650 nM
- TGI [42]: 4.16 µM
- GI50 [44]: 1270 nM
- TGI [44]: 2.68 µM
- GI50 [45]: 599 nM
- TGI [45]: 1.92 µM
- GI50 [46]: 472 nM
- TGI [46]: 2.71 µM
- GI50 [47]: 795 nM
- TGI [47]: 2.15 µM
- GI50 [48]: 378 nM
- TGI [48]: 1.83 µM
- GI50 [51]: 905 nM
- TGI [51]: 2.31 µM
- GI50 [49]: 1660 nM
- TGI [49]: 3.35 µM
- GI50 [50]: 558 nM
- TGI [50]: 2.28 µM
